In ChEMBL document CHEMBL4371007, “Biased Ligands of G Protein-Coupled Receptors (GPCRs): Structure-Functional Selectivity Relationships (SFSRs) and Therapeutic Potential” (J Med Chem, 2018):

How the values were obtained:
[1] = molecular target: T1, Kappa-type opioid receptor (Rattus norvegicus, UniProt P34975); experiment: Agonist activity at GFP-tagged rat kappa opioid receptor expressed in HEK293 cells assessed as increase in ERK1/2 phosphorylation after 5 mins by Western blot analysis; type: cell-based
[2] = molecular target: T1, Kappa-type opioid receptor; experiment: Agonist activity at GFP-tagged rat kappa opioid receptor expressed in HEK293 cells assessed as increase in beta-arrestin mediated p38 phosphorylation after 5 mins by Western blot analysis; type: cell-based
[3] = molecular target: T2, Adenosine receptor A1 (Homo sapiens) (UniProt P30542)
T2 sequence (whole entry): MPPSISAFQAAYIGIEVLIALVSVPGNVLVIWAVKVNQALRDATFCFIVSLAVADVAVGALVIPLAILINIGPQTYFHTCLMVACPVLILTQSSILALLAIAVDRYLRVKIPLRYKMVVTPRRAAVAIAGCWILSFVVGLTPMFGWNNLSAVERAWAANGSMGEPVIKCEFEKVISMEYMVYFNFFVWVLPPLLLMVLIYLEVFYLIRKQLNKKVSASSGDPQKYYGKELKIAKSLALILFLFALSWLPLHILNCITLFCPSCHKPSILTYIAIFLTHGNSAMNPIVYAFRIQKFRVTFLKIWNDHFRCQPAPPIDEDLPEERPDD

[4] = molecular target: T2, Adenosine receptor A1 (Homo sapiens); experiment: Agonist activity at adenosine A1 receptor (unknown origin) expressed in FlpIn-CHO cells assessed as increase in ERK1/2 phosphorylation; type: cell-based
Apelin receptor [5] = molecular target: T3, Apelin receptor (Homo sapiens, UniProt P35414); experiment: Agonist activity at GFP10 tagged human APJ receptor expressed in HEK293 cells harboring Rluc2-beta-arrestin1 assessed as increase in beta-arrestin1 recruitment after 30 mins by BRET-based luciferase reporter gene assay; type: cell-based
T3 sequence (P35414 whole entry): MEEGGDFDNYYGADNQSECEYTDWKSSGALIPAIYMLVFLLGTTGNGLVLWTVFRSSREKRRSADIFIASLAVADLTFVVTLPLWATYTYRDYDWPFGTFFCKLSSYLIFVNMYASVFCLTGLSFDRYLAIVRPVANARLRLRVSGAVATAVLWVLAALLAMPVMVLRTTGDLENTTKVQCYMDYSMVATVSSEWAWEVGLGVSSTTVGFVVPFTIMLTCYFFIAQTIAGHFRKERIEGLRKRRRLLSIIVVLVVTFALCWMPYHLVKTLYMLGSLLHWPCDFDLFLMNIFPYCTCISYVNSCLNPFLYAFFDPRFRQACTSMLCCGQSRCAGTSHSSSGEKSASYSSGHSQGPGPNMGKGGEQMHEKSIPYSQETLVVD

Apelin receptor [6] = molecular target: T3, Apelin receptor; experiment: Agonist activity at GFP10 tagged human APJ receptor expressed in HEK293 cells harboring Rluc2-Galphai1/GFP10-Ggamma/Gbeta1 after 5 mins by BRET assay; type: cell-based
Apelin receptor [7] = molecular target: T3, Apelin receptor; experiment: Agonist activity at GFP10 tagged human APJ receptor expressed in HEK293 cells harboring Rluc2-Galpha0A/GFP10-Ggamma/Gbeta1 after 5 mins by BRET assay; type: cell-based
Apelin receptor [8] = molecular target: T3, Apelin receptor; experiment: Agonist activity at human APJ receptor expressed in HEK293 cells harboring Rluc2-beta-arrestin2 assessed as increase in beta-arrestin2 recruitment after 30 mins by BRET-based luciferase reporter gene assay; type: cell-based
D(2) dopamine receptor [9] = molecular target: T4, D(2) dopamine receptor (Homo sapiens, UniProt P14416); experiment: Agonist activity at dopamine D2 receptor (unknown origin) by cAMP accumulation assay relative to control; type: functional
D(2) dopamine receptor [10] = molecular target: T4, D(2) dopamine receptor; experiment: Agonist activity at dopamine D2 receptor (unknown origin) assessed as increase in beta-arrestin-2 recruitment relative to control
[11] = molecular target: T5, Endothelin-1 receptor (Homo sapiens) (UniProt P25101)
T5 sequence (whole entry): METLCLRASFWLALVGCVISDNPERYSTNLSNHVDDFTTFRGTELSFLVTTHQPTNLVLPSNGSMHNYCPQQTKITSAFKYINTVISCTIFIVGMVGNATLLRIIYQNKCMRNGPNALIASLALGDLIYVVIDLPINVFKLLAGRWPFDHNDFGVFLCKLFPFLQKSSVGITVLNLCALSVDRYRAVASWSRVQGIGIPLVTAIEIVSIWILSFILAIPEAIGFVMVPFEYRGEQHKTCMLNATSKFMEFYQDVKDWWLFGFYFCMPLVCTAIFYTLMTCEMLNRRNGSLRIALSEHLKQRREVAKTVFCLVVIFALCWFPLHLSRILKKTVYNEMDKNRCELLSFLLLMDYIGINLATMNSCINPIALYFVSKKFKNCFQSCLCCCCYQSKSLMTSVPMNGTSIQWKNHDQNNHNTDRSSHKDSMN

[12] = molecular target: T6, Endothelin receptor type B (Homo sapiens) (UniProt P24530)
T6 sequence (whole entry): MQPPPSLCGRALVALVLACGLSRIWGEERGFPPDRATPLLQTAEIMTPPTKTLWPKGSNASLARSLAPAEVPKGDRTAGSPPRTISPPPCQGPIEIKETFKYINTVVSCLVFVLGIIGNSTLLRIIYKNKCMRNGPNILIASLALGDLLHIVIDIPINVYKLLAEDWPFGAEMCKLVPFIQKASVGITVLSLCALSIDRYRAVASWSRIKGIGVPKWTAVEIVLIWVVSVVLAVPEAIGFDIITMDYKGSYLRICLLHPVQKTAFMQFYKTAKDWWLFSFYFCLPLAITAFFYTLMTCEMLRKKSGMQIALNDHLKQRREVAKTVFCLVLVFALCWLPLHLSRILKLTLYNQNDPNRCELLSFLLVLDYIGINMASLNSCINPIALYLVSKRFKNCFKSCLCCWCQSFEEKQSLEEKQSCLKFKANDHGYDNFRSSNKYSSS

D(2) dopamine receptor [13] = molecular target: T4, D(2) dopamine receptor; experiment: Agonist activity at dopamine D2 receptor (unknown origin) expressed in HEK293T cells co-expressing luciferase based cAMP biosensor assessed as inhibition of forskolin-mediated cAMP accumulation at 1 uM after 15 mins by microbeta luminescence counting assay relative to control; type: functional, cell-based
D(2) dopamine receptor [14] = molecular target: T4, D(2) dopamine receptor; experiment: Agonist activity at human dopamine D2long receptor (unknown origin) expressed in HEK293T cells co-expressing TEV fused-beta-Arrestin2 and GRK2 assessed as increase in beta-arrestin-2 recruitment at 1 uM after overnight incubation by Tango assay relative to control; type: cell-based
D(2) dopamine receptor [15] = molecular target: T4, D(2) dopamine receptor; experiment: Agonist activity at human dopamine D2long receptor (unknown origin) expressed in HEK293T cells co-expressing TEV fused-beta-Arrestin2 and GRK2 assessed as increase in beta-arrestin-2 recruitment after overnight incubation by Tango assay; type: cell-based
D(2) dopamine receptor [16] = molecular target: T4, D(2) dopamine receptor; experiment: Ratio of EC50 for dopamine D2 receptor (unknown origin) expressed in HEK293T cells co-expressing luciferase based cAMP biosensor assessed as inhibition of forskolin-mediated cAMP accumulation to EC50 for human dopamine D2long receptor (unknown origin) expressed in HEK293T cells co-expressing TEV fused-beta-Arrestin2 and GRK2 assessed as increase in beta-arrestin-2 recruitment; type: functional, cell-based
D(2) dopamine receptor [17] = molecular target: T4, D(2) dopamine receptor; experiment: Agonist activity at dopamine D2 receptor (unknown origin) expressed in HEK293T cells co-expressing luciferase based cAMP biosensor assessed as inhibition of forskolin-mediated cAMP accumulation after 15 mins by microbeta luminescence counting assay; type: functional, cell-based
[18] = molecular target: Metabotropic glutamate receptor 5 (Rattus norvegicus, UniProt P31424); experiment: Positive allosteric modulation of rat mGlu5 receptor expressed in HEK293 cells assessed as increase in calcium mobilization after 60 secs in presence of glutamate by Fluo-4 AM dye-based fluorescence assay; type: functional, cell-based
Chain of Metabotropic glutamate receptor 5 (P31424 whole entry): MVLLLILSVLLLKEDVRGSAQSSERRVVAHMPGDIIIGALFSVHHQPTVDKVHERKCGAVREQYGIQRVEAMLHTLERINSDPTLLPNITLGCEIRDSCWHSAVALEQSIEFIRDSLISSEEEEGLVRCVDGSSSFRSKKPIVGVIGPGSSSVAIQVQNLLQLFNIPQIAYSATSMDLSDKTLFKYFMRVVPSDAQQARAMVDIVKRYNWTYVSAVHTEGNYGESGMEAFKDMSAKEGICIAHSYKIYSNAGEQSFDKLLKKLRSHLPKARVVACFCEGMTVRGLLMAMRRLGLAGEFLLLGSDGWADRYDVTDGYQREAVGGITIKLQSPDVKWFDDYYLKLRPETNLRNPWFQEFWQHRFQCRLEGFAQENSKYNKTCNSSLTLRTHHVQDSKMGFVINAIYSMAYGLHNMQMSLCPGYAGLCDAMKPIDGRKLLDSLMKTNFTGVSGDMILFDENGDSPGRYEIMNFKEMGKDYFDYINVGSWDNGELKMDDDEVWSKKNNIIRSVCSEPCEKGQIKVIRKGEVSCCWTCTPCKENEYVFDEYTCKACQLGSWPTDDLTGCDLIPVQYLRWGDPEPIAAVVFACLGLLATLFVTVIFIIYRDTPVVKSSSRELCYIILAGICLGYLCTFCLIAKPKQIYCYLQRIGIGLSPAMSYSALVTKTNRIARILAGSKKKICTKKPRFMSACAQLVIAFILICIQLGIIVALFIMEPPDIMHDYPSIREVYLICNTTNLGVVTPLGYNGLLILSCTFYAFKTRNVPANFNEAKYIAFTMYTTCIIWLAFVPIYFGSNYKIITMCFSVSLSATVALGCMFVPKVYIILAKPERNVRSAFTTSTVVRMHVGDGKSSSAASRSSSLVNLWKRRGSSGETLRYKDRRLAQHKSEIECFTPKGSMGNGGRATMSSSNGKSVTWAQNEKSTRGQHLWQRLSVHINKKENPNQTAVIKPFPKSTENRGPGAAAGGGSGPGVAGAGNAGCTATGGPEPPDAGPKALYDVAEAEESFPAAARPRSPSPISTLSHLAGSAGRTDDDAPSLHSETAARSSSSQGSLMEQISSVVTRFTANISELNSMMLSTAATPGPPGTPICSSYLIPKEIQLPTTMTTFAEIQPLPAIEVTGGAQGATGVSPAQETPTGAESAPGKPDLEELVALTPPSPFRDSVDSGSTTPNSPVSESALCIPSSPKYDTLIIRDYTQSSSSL

T4 sequence (P14416 whole entry): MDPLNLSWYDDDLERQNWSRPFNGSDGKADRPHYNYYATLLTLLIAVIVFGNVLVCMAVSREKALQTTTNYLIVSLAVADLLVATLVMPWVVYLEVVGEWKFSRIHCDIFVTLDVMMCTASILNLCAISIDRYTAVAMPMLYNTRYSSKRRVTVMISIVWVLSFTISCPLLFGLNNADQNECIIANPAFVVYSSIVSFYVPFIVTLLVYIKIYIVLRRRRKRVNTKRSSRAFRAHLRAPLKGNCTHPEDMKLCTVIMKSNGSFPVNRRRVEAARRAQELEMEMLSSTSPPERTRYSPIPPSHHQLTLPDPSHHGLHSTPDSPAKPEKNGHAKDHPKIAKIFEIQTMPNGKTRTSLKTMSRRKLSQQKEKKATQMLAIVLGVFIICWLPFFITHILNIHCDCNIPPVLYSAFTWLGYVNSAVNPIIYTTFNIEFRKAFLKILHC
T1 sequence (P34975 whole entry): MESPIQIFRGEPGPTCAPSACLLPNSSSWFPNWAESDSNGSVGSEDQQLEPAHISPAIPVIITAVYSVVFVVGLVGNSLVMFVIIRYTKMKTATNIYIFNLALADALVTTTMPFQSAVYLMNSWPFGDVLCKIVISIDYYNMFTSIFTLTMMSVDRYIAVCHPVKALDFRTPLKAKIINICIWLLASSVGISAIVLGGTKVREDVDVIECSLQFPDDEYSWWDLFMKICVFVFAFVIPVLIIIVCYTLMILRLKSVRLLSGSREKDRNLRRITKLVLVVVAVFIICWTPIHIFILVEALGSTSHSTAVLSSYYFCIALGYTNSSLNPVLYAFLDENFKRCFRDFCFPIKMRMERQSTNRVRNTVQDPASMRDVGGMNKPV

For CN(C(=O)/C=C/c1ccoc1)[C@@H]1CC[C@@]2(O)[C@H]3Cc4ccc(O)c5c4[C@@]2(CCN3CC2CC2)[C@H]1O5 [NALFURAFINE], the EC50 [1] was 0.5 nM and the EC50 [2] was 5.2 nM.

C[C@H](Cc1ccccc1)Nc1ncnc2c1ncn2[C@@H]1O[C@H](CO)[C@@H](O)[C@H]1O gave a log(Tau/KA) [3] of 8.96 and a log(Tau/KA) [4] of 9.5.

CC(C)C[C@H](NC(=O)[C@H](CCCCN)NC(=O)[C@@H]1CCCN1C(=O)[C@@H](N)CCCCN)C(=O)N[C@@H](CO)C(=O)N[C@@H]1CC=CCC[C@@H](C(=O)N[C@@H](Cc2ccc(OCc3ccccc3)cc2)C(=O)O)NC(=O)[C@@H]2CCCN2C(=O)CNC(=O)[C@H](CCCCN)NC1=O was tested, and the EC50 (Apelin receptor [5]) was greater than 10000 nM, the EC50 (Apelin receptor [6]) was 56 nM and the EC50 (Apelin receptor [7]) was 50 nM. It also gave an EC50 (Apelin receptor [8]) greater than 10000 nM.

CN(CCCCNC(=O)c1cc2ccccc2[nH]1)[C@@H]1Cc2cccc3[nH]c(=O)n(c23)C1 gave an Activity (D(2) dopamine receptor [9]) of 96% and an Activity (D(2) dopamine receptor [10]) of 66%.

Work on COc1ccccc1Oc1c(NS(=O)(=O)c2ccc(C(C)(C)C)cc2)nc(-c2ncccn2)nc1OCCO yielded a pKb [11] of 8.01 and a pKb [12] of 6.15.

Molecule Cc1cc2c(N3CCN(CCCCOc4ccc5c(c4)NC(=O)CC5)CC3)cccc2n1C has an Emax (D(2) dopamine receptor [13]) of 60%, an Emax (D(2) dopamine receptor [14]) of 78% and an EC50 (D(2) dopamine receptor [15]) of 2.9 nM. It also gave a Ratio EC50 (D(2) dopamine receptor [16]) of 20 and an EC50 (D(2) dopamine receptor [17]) of 23 nM.

With O=C(Nc1ccc(Cl)cc1CN1C(=O)c2cccc(F)c2C1=O)c1ccccn1 the EC50 [18] was 214 nM.
